Measured values: patent publication US5744487A, “Prolineamide derivatives” (Mitsubishi Chemical Corporation, priority 1994, dated 1998)
pIC50: −log10 of the molar value.

What was measured:
[1] = J. Med. Chem., 33, 1729 (1990); cited from earlier work
bovine thrombin [2] = target: T1, bovine thrombin (Bos taurus, UniProt P00735); assay: Antithrombin activity: coagulation inhibition of rat plasma; format: biochemical
T1 construct: purchased Mochida Co., Ltd
Method: (ii) The measuring method for coagulation inhibition of rat plasma The compound of the present invention is dissolved in water or saline to form a solution of a total volume of 0.1 ml. To the solution, 0.1 ml of rat plasma is added and the mixture is incubated at 37° C. for 30 seconds. Then, 0.1 ml of bovine thrombin (8 units/ml, Mochida Co., Ltd.) is added and the coagulation time is measured at 37° C. The concentration of the inhibitor (i.e., the compound of the present invention) which doubles the coagulation time that obtained in the absence of the inhibitor was determined as I50 (μm).

bovine thrombin [3] = target: T1, bovine thrombin; assay: Antithrombin activity: hydrolysis inhibition of synthetic substrate (S-2238); format: biochemical
Method: Determination of antithrombin activity
(i) The measuring method for hydrolysis inhibition of synthetic substrate (S-2238)
S-2238 (manufactured by Kabi Co.) is dissolved in a Tris hydrochloric acid buffer solution (pH: 8.3) to prepare a S-2238-0.4M Tris hydrochloric acid solution having a concentration of 80 μm. To 175 μl of the solution, an aqueous solution of a compound of the present invention (515 μl) is added. After incubating at 37° C. for one minute, 10 μl of a bovine thrombin solution (4.4 units/ml, manufactured by Mochida Co., Ltd.) is added. A hydrolysis reaction rate of the substrate is determined by measuring a change in absorbance of 405 nm at 37° C.

bovine trypsin = target: T2, bovine trypsin (Bos taurus, UniProt P00760); assay: Antitrypsin activity: hydrolysis inhibition of synthetic substrate (S-2222); format: biochemical; details: S-2222 substrate, pH 8.3, 37° C., absorbance 405 nm, read-out: Antitrypsin activity I50
T2 construct: purchased Sigma Co
T2 sequence (P00760 24-246): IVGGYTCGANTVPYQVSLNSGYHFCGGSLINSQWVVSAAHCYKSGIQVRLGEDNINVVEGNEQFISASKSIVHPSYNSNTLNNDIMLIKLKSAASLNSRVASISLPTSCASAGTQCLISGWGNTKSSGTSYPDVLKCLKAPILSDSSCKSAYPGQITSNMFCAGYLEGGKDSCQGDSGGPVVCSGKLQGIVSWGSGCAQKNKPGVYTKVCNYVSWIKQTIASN
Method: Determination of Antitrypsin activity
(i) The measuring method for hydrolysis inhibition of synthetic substrate (S-2222)
S-2222 (manufactured by Kabi Co.) is dissolved in a Tris hydrochloric acid (pH: 8.3) to prepare a S-2222-0.4M Tris hydrochloric acid solution having a concentration of 400 μm. To the solution (175 μl), 515 μl of a solution of a compound of the present invention is added. After incubating at 37° C. for one minute, 10 μl of a bovine trypsin solution (1 to 2 mg/ml, manufactured by Sigma Co.) is added. A hydrolysis reaction rate of the substrate is determined by measuring a change in absorbance of 405 nm at 37° C.

Structure (SMILES) | stability in the living body [1] | pIC50 (bovine thrombin [2]) | pIC50 (bovine thrombin [3]) | pIC50 (bovine trypsin)
N=C(N)NCCC[C@@H](C=O)NC(=O)[C@@H]1CCCN1C(=O)[C@H](N)Cc1ccccc1 [D-phenylalanyl-L-prolyl-L-arginal] | fairly unstable |  |  | 
CS(=O)(=O)N[C@@H](C(=O)N1CCC[C@H]1C(=O)NCc1ccc(C(=N)N)cc1)C1CCCCC1 [compound 1] |  | 7.34 |  | 
CC(C)(C)C[C@@H](NS(C)(=O)=O)C(=O)N1CCC[C@H]1C(=O)NCc1ccc(C(=N)N)cc1 [compound 2] |  | 7.52 |  | 
CS(=O)(=O)N[C@H](Cc1ccccc1)C(=O)N1CCC[C@H]1C(=O)NCc1ccc(C(=N)N)cc1 [compound 4] |  | 7.68 | 8.12 | 7.40
CSCC[C@@H](NS(C)(=O)=O)C(=O)N1CCC[C@H]1C(=O)NCc1ccc(C(=N)N)cc1 [compound 5] |  | 7.32 |  | 
N=C(N)c1ccc(CNC(=O)[C@@H]2CCCN2C(=O)[C@@H](Cc2ccccc2)NC=O)cc1 [compound 6] |  | 7.25 |  | 
CCCC[C@@H](NS(C)(=O)=O)C(=O)N1CCC[C@H]1C(=O)NCc1ccc(C(=N)N)cc1 [compound 7] |  | 7.52 |  | 
COC(=O)c1ccc(CC[C@@H](NS(C)(=O)=O)C(=O)N2CCC[C@H]2C(=O)NCc2ccc(C(=N)N)cc2)cc1 [compound 8] |  | 6.91 |  | 
CS(=O)(=O)N[C@H](COc1cccc(C(=O)O)c1)C(=O)N1CCC[C@H]1C(=O)NCc1ccc(C(=N)N)cc1 [compound 9] |  | 6.96 |  | 
CS(=O)(=O)N[C@H](COc1ccccc1C(=O)OCc1ccccc1)C(=O)N1CCC[C@H]1C(=O)NCc1ccc(C(=N)N)cc1 [compound 10] |  | 6.77 |  | 
CCCCC[C@@H](NS(=O)(=O)CC(=O)O)C(=O)N1CCC[C@H]1C(=O)NCc1ccc(C(=N)N)cc1 [compound 12] |  | 7.08 |  | 
N=C(N)c1ccc(CNC(=O)[C@@H]2CCCN2C(=O)CCCc2ccccc2)cc1 [compound 13] |  | 6.23 | 6.14 | 
CCOC(=O)N[C@H](CC(C)(C)C)C(=O)N1CCC[C@H]1C(=O)NC[C@H]1CC[C@H](C(=N)N)CC1 [compound 15] |  | 7.42 | 7.96 | 5.66
CCOC(=O)N[C@H](CC1CCCCC1)C(=O)N1CCC[C@H]1C(=O)NC[C@H]1CC[C@H](C(=N)N)CC1 [compound 16] |  |  | 7.68 | 5.77
CC(C)OC(=O)N[C@H](CC(C)(C)C)C(=O)N1CCC[C@H]1C(=O)NC[C@H]1CC[C@H](C(=N)N)CC1 [compound 17] |  | 7.28 | 7.82 | 5.49
CC(C)C[C@@H](NS(C)(=O)=O)C(=O)N1CCC[C@H]1C(=O)NC[C@H]1CC[C@H](C(=N)N)CC1 [compound 19] |  | 7.51 |  | 

Structure (SMILES) | stability in the living body [1] | pIC50 (bovine thrombin [2]) | pIC50 (bovine thrombin [3]) | pIC50 (bovine trypsin)
CS(=O)(=O)N[C@H](CC1CCCCC1)C(=O)N1CCC[C@H]1C(=O)NC[C@H]1CC[C@H](C(=N)N)CC1 [compound 20] |  | 7.55 |  | 
CC(C)OC(=O)N[C@@H](C(=O)N1CCC[C@H]1C(=O)NC[C@H]1CC[C@H](C(=N)N)CC1)C1CCCCC1 [compound 21] |  |  | 7.68 | 6.00
CCOC(=O)N[C@H](CC(CC)CC)C(=O)N1CCC[C@H]1C(=O)NC[C@H]1CC[C@H](C(=N)N)CC1 [compound 22] |  |  | 7.85 | 6.03
CC(C)(C)C[C@@H](NC(=O)OC(C)(C)C)C(=O)N1CCC[C@H]1C(=O)NC[C@H]1CC[C@H](C(=N)N)CC1 [compound 23] |  | 7.24 | 7.77 | 5.44
NC(=NO)c1ccc(CNC(=O)[C@@H]2CCCN2C(=O)Cc2ccccc2)cc1 [compound 25] |  | < 3.52 |  | 
CS(=O)(=O)N[C@H](Cc1ccccc1)C(=O)N1CCC[C@H]1C(=O)NC[C@H]1CC[C@H](N)CC1 [compound 52] |  | 7.35 | 6.89 | 4.85
CS(=O)(=O)N[C@@H](C(=O)N1CCC[C@H]1C(=O)NC[C@H]1CC[C@H](N)CC1)C1CCCCC1 [compound 53] |  | 7.23 | 7.09 | 5.85
N[C@H]1CC[C@H](CNC(=O)[C@@H]2CCCN2C(=O)[C@H](CCC(=O)O)NS(=O)(=O)c2ccccc2)CC1 [compound 54] |  | 6.64 |  | 
CC(C)OC(=O)N[C@H](CC(C)(C)C)C(=O)N1CCC[C@H]1C(=O)NC[C@H]1CC[C@H](N)CC1 [compound 56] |  | 7.10 | 6.89 | 4.85
CCOC(=O)N[C@H](Cc1ccccc1)C(=O)N1CCC[C@H]1C(=O)NC[C@H]1CC[C@H](N)CC1 [compound 57] |  | 7.09 |  | 
N[C@H](Cc1ccccc1)C(=O)N1CCC[C@H]1C(=O)NC[C@H]1CC[C@H](N)CC1 [compound 58] |  | 7.01 |  | 
N[C@H]1CC[C@H](CNC(=O)[C@@H]2CCCN2C(=O)[C@H](O)C2CCCCC2)CC1 [compound 61] |  | 7.25 |  | 
N[C@H]1CC[C@H](CNC(=O)[C@@H]2CCCN2C(=O)[C@H](O)c2ccccc2)CC1 [compound 62] |  | 7.06 |  | 
CCOC(=O)N[C@H](CC(C)(C)C)C(=O)N1CCC[C@H]1C(=O)NC[C@H]1CC[C@H](N)CC1 [compound 64] |  | 6.89 |  | 
CS(=O)(=O)N[C@H](Cc1ccccc1)C(=O)N1CCC[C@H]1C(=O)NC[C@H]1CC[C@H](NC(=N)N)CC1 [compound 67] |  | 7.09 | 6.25 | 4.70
